Reference: ChEMBL document CHEMBL1201862, “PubChem BioAssay data set” (2004)
Structures can show the parent of a compound that is named as a salt. The source made the active and inactive calls.

Experiments:
Melanocortin receptor 4 = Melanocortin receptor 4 (Homo sapiens, UniProt P32245); type: functional, cell-based;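 further: Cell-based assay with luminescence read-out, confirmatory dose-response testing for agonist activity of biased ligands at MC4R; human U2OS cells with tagged receptor and beta-arrestin; potency of agonists that increase receptor coupling to beta-arrestin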
[1] = Artemis endonuclease inhibitor potency, dose response, biochemical, fluorescence intensity (AID 720701); type: functional;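 further: Artemis endonuclease enzyme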
[2] = AlphaScreen signal interference compounds, dose response, artefact control for ARNT-TACC3 interaction inhibitor project, biochemical, luminescence, cherry-pick (AID 651705); type: functional;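 further: AlphaScreen bead proximity signal that flags compounds interfering with the detection technology; potency reflects signal decrease which marks the compound as an assay artifact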
Beta-galactosidase = Beta-galactosidase (Escherichia coli, UniProt Q8VNN2); assay: beta-galactosidase enzyme inhibitors and activators, dose response, artefact control for CCR6 antagonist project, biochemical, E. coli enzyme, set 3 (AID 504712); type: functional
[3] = biological target: ATP-dependent molecular chaperone HSP82 (Candida albicans (strain WO-1) (Yeast), UniProt C4YTQ8); assay: loss of DOC-induced GRE-beta-galactosidase reporter signal, dose response, Hsp90 inhibitor project, S. cerevisiae, luminescence (AID 2400); type: functional, cell-based;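 further: beta-galactosidase luminescence from glucocorticoid response element reporter as proxy for Hsp90 function; inhibitor potency where signal loss means Hsp90 inhibition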
[4] = C. albicans growth with fluconazole, confirmation, fluorescence, retest (AID 2467); type: functional, cell-based
[5] = NIH-3T3 fibroblast cytotoxicity, dose response, cytotoxicity control, cell-based, fluorescence, Alamar Blue, secondary assay (AID 2327); type: functional;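 further: NIH-3T3 mouse fibroblasts cultured with fluconazole at 8 µg/mL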
[6] = biological target: Heat shock protein HSP 90-alpha (Homo sapiens, UniProt P07900); type: functional, organism-based
[7] = inhibitors of intracellular T. cruzi replication, confirmation, NIH3T3 host cells, beta-gal luminescence (AID 2044); type: functional, cell-based;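 further: intracellular parasites grown in NIH/3T3 mouse fibroblasts as host cells; luminescent beta-galactosidase reporter signal from transgenic T. cruzi replicating inside host cells; inhibitors lower the luminescence signal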
[8] = cytotoxicity toward NIH3T3 fibroblasts, dose response, counter-screen, cell-based, ATP luminescence, mouse fibroblasts (AID 2010); type: functional;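 further: cells exposed to compound for about 90 hours before reading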
[9] = biological target: T1, Serine/threonine-protein phosphatase (Candida dubliniensis (strain CD36 / CBS 7987 / NCPF 3949 / NRRLY-17841) (Yeast), UniProt B9W6M3); assay: calcineurin pathway inhibitors in yeast reporter, dose response, S. cerevisiae, CDRE-lacZ, luminescence, secondary (AID 2388); type: functional, cell-based;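 further: yeast reporter cells carrying a calcineurin-responsive lacZ construct stimulated with calcium chloride; luminescent beta-galactosidase reporter signal in whole cells rather than isolated phosphatase activity; potency for inhibition where a drop in reporter signal means calcineurin blockade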
T1 sequence (B9W6M3 whole entry): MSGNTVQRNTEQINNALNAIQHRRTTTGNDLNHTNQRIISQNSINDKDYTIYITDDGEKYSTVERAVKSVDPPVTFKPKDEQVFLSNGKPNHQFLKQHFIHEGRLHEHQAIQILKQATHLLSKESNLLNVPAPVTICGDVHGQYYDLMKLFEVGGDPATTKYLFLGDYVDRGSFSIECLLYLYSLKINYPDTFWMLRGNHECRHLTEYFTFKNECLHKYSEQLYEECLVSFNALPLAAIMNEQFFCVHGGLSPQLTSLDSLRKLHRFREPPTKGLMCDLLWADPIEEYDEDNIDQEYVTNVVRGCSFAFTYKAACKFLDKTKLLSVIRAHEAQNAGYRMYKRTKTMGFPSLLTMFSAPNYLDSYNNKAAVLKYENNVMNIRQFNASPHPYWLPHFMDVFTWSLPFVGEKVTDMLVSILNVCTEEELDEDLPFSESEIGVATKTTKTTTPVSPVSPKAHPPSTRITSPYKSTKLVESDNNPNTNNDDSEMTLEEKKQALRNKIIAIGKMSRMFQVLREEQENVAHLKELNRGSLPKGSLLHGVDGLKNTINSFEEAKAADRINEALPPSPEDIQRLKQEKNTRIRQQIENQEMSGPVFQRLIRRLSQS

[10] = NIH-3T3 fibroblast cytotoxicity, dose response, cytotoxicity control for antifungal single agent project, cell-based, Alamar Blue, dry powder (AID 602188); type: functional
[11] = biological target: Ras and Rab interactor 1/Tyrosine-protein kinase ABL1 (Homo sapiens, UniProt P00519+Q13671); type: functional;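 further: biochemical TR-FRET dose-response test measuring inhibition of binding between Rin1 and Abl proteins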
Prothrombin = Prothrombin (Bos taurus, UniProt P00735); assay: thrombin inhibition, dose response, biochemical, fluorescence polarization, uHTS hits (AID 602369); type: functional
[12] = biological target: 26S proteasome non-ATPase regulatory subunit 14 (Homo sapiens, UniProt O00487); assay: inhibition of proteasome subunit RPN11 – biochemical, fluorescence polarization, uHTS hits, confirmation (AID 602368); type: functional
[13] = biological target: 72 kDa type IV collagenase (Homo sapiens, UniProt P08253); assay: Dose Response validation of uHTS RPN11 inhibitor hits using a MMP-2 Fluorescence assay.; type: functional
[14] = biological target: T2, Aryl hydrocarbon receptor (Homo sapiens, UniProt P35869); details: Potency;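 further: confirmatory quantitative high-throughput screen measuring activation of the AhR signaling pathway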
T2 sequence (P35869 whole entry): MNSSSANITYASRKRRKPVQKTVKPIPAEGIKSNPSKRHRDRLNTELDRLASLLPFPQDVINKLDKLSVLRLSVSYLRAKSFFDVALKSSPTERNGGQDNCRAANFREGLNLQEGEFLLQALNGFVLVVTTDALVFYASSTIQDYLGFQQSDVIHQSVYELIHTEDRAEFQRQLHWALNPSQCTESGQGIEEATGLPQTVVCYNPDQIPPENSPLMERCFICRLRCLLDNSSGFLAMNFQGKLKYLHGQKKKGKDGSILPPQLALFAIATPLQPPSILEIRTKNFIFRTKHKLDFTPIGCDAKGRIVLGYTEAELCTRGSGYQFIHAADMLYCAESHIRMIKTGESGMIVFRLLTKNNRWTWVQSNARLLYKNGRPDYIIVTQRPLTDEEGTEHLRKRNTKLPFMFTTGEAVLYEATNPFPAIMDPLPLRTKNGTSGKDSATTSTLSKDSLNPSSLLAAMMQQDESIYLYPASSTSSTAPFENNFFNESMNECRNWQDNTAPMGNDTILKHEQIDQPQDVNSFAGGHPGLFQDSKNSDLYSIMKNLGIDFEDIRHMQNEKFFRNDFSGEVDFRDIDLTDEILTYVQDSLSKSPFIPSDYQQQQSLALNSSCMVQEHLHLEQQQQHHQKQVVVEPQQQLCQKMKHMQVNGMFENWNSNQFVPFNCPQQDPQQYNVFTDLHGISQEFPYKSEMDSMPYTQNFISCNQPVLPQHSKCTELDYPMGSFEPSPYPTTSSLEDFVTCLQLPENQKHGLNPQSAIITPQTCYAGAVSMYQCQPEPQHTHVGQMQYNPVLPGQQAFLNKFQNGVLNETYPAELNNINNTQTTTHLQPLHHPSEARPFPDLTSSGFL

[15] = biological target: T3, Apoptotic protease-activating factor 1 (Homo sapiens, UniProt O14727); assay: SAR analysis of small molecule Activators of Apaf-1 in a Fluorescent assay.; type: functional; details: read-out: EC50_Mean;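 further: caspase-3 cleavage of fluorogenic Rh110 DEVD substrate downstream of apoptosome activation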
T3 sequence (O14727 whole entry): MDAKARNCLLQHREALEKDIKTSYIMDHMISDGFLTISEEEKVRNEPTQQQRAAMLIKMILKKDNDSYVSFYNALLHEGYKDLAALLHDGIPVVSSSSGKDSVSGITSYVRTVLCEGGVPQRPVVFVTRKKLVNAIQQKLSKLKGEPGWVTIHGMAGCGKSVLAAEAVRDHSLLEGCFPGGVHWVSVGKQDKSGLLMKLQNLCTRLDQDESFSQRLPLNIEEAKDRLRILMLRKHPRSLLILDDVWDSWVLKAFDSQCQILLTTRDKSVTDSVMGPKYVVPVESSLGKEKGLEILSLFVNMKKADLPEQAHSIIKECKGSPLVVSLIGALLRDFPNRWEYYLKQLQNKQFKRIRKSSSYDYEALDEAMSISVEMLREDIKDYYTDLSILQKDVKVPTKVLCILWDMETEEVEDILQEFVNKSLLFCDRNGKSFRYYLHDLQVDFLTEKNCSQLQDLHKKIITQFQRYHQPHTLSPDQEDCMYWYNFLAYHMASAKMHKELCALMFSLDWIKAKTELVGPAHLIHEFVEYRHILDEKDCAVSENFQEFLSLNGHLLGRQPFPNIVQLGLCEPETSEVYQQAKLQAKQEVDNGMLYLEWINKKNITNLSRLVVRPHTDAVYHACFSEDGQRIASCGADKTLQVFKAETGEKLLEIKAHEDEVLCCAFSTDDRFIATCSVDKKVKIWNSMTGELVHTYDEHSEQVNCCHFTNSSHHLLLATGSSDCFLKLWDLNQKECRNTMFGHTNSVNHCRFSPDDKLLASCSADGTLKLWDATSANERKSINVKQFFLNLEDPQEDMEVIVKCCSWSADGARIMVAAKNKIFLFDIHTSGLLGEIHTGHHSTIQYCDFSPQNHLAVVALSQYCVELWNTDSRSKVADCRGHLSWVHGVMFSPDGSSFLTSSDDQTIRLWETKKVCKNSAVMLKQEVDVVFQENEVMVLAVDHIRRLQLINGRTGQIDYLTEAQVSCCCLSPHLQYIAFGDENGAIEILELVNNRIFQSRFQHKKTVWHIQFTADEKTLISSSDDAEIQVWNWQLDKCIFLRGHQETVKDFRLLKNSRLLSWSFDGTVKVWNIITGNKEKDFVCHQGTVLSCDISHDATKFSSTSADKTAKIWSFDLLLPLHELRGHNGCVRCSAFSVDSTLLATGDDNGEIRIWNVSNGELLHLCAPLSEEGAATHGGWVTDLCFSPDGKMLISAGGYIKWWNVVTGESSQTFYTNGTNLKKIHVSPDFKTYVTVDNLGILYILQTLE

[16] = biological target: Dual specificity protein kinase CLK4 (Homo sapiens, UniProt Q9HAZ1); type: functional
[17] = biological target: Serine/threonine-protein kinase pim-1 (Homo sapiens, UniProt P11309); type: functional
[18] = biological target: Interleukin-1 receptor-associated kinase 4 (Homo sapiens, UniProt Q9NWZ3); type: functional
[19] = biological target: Glycogen synthase kinase-3 beta (Homo sapiens, UniProt P49841); type: functional;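 further: value comes from a broad kinome profiling panel, with GSK3B as the panel member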
[20] = biological target: Cell division cycle 7-related protein kinase (Homo sapiens, UniProt O00311); type: functional;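 further: value obtained from a kinome-wide kinase panel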
[21] = biological target: cAMP-dependent protein kinase catalytic subunit alpha (Homo sapiens, UniProt P17612); type: functional
[22] = biological target: Homeodomain-interacting protein kinase 2 (Homo sapiens, UniProt Q9H2X6); type: functional;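 further: measured within a kinome-wide kinase profiling panel, HIPK2 being one panel member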
[23] = biological target: Mitogen-activated protein kinase kinase kinase kinase 4 (Homo sapiens, UniProt O95819); type: functional
[24] = biological target: T4, DNA repair and recombination protein RAD54-like (Homo sapiens, UniProt Q92698); assay: inhibitors of human RAD54 branch migration, confirmation, biochemical, fluorescence, cherry-picked samples, dose series (AID 651657); type: functional
T4 sequence (Q92698 whole entry): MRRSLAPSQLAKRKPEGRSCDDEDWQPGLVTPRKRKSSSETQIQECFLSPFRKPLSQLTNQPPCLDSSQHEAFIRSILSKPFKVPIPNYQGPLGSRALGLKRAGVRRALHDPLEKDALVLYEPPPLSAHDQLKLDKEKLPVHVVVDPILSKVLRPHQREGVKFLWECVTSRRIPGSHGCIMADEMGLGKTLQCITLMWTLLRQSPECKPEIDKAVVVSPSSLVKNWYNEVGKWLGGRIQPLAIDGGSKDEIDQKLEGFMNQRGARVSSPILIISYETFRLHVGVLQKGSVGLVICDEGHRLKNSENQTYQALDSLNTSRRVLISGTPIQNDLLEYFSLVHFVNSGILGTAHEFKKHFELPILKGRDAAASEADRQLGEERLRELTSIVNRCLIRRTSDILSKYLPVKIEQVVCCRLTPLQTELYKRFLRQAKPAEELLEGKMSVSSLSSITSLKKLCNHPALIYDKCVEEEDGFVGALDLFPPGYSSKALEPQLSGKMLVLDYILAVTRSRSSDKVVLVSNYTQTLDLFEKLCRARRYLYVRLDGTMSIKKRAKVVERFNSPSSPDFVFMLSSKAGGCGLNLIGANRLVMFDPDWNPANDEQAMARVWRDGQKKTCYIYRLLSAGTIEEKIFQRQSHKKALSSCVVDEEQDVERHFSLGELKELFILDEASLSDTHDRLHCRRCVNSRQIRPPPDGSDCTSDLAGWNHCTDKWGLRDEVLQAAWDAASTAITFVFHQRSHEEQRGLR

Interleukin-8 [25] = biological target: T5, Interleukin-8 (Homo sapiens, UniProt P10145); assay: Dose Response confirmation of uHTS small molecule hits for cystic fibrosis induced NFkb Inhibitors in a TNFa-induced IL8 counterscreen.; type: functional; details: read-out: IC50_Mean
Kallikrein-7 = Kallikrein-7 (Homo sapiens, UniProt P49862); assay: Fluorescence Intensity-based biochemical primary high throughput dose response assay to identify activators of kallikrein-7 (K7) zymogen.
Interleukin-8 [26] = biological target: T5, Interleukin-8; assay: Dose Response confirmation of uHTS small molecule hits for cystic fibrosis induced NFkb Inhibitors in a PAF-induced IL8 counterscreen.; type: functional; details: read-out: IC50_Mean

T5 sequence (P10145 whole entry): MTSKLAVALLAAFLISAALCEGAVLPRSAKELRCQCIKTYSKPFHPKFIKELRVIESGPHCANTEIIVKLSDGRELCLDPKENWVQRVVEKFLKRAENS
Sequence of 26S proteasome non-ATPase regulatory subunit 14 (O00487 whole entry): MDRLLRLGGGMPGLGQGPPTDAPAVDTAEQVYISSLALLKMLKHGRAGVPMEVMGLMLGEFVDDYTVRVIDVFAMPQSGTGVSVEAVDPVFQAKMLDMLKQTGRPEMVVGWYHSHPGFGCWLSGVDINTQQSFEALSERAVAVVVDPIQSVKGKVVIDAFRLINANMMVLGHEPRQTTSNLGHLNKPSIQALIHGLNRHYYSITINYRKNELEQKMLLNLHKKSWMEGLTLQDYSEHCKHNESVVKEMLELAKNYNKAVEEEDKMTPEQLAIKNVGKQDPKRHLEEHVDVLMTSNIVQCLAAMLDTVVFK
Sequence of ATP-dependent molecular chaperone HSP82 (C4YTQ8 whole entry): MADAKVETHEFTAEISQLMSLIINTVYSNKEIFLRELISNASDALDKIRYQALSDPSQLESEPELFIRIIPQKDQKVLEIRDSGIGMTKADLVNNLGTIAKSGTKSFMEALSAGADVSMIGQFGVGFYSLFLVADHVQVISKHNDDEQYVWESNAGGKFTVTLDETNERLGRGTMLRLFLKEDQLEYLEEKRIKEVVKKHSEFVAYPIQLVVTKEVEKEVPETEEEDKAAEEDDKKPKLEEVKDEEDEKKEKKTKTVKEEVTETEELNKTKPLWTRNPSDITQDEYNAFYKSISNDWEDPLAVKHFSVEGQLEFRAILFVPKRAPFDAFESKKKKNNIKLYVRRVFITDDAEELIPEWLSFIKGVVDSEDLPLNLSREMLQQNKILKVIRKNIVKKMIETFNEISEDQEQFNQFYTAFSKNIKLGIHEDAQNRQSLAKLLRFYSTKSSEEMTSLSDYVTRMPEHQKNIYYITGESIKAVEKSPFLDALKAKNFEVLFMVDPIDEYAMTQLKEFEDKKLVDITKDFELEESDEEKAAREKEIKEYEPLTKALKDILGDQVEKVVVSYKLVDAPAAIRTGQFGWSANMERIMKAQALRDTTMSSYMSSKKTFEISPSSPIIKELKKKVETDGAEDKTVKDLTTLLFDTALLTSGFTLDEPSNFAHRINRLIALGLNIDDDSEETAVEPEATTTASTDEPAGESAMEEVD
Sequence of Interleukin-1 receptor-associated kinase 4 (Q9NWZ3 whole entry): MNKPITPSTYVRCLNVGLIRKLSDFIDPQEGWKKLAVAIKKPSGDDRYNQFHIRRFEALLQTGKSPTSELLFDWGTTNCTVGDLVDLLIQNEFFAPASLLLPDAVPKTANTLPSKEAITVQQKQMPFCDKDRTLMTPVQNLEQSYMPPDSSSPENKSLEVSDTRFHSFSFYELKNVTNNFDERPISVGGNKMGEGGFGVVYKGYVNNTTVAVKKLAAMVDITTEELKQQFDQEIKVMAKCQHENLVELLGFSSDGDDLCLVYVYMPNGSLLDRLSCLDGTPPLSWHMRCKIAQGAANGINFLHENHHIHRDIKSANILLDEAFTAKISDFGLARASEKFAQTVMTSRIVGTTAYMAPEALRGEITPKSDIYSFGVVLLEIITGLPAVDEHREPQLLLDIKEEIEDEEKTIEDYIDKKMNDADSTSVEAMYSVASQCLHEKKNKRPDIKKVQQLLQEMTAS
Sequence of Ras and Rab interactor 1/Tyrosine-protein kinase ABL1 (P00519 whole entry): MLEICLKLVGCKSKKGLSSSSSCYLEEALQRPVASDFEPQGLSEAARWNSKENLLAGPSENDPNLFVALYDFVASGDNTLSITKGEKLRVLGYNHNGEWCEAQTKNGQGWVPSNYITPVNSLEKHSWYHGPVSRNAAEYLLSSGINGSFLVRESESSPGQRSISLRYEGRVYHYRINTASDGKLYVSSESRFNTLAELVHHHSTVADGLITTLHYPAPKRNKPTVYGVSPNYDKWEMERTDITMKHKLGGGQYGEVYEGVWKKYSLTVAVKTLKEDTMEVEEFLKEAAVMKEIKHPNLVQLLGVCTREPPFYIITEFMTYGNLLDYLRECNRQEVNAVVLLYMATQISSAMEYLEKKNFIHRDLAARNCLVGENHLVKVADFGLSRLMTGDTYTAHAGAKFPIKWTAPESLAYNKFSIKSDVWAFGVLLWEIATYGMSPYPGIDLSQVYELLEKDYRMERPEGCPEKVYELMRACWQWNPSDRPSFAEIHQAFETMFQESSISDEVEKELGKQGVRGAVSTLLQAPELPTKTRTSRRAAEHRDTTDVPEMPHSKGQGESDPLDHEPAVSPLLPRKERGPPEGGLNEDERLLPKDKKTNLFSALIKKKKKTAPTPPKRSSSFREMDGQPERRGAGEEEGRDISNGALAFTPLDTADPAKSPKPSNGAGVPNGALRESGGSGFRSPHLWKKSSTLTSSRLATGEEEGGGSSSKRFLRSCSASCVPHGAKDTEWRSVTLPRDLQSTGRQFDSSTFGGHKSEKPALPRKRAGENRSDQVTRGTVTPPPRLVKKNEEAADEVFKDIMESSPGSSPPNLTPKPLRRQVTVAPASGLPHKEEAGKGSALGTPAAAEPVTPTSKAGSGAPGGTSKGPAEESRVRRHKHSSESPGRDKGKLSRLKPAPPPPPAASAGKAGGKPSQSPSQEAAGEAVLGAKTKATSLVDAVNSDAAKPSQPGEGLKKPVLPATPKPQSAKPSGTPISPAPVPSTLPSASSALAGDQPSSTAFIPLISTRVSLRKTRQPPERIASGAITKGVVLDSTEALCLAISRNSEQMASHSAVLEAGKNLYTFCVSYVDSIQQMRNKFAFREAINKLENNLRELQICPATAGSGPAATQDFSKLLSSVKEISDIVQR
Sequence of Ras and Rab interactor 1/Tyrosine-protein kinase ABL1 (Q13671 whole entry): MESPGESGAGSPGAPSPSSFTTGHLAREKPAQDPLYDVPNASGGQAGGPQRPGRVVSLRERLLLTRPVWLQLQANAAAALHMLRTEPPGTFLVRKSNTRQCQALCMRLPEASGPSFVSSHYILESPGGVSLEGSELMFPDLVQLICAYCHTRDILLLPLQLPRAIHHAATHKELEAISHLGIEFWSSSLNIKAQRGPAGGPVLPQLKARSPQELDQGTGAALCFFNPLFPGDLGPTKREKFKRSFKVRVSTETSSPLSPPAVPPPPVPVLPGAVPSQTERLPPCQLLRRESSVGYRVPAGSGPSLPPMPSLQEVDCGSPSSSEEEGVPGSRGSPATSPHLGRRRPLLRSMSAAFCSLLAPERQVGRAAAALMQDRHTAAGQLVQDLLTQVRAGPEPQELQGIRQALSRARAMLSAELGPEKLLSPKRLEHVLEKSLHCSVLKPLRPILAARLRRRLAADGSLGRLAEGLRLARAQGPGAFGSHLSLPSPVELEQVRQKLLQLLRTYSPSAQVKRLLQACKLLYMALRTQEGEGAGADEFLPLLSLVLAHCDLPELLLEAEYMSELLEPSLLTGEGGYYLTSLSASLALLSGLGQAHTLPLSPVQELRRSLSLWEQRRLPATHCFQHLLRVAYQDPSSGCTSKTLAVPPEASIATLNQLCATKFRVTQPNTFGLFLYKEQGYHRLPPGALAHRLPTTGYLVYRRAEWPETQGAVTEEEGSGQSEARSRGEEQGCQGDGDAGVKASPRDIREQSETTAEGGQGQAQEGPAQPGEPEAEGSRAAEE
Sequence of Kallikrein-7 (P49862 whole entry): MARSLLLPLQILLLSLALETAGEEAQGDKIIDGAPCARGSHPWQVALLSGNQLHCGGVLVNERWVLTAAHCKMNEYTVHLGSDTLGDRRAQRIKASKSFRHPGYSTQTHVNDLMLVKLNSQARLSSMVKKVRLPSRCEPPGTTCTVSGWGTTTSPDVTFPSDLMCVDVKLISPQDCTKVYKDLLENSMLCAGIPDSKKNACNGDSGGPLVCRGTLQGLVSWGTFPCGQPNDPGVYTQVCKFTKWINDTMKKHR
Sequence of Serine/threonine-protein kinase pim-1 (P11309 whole entry): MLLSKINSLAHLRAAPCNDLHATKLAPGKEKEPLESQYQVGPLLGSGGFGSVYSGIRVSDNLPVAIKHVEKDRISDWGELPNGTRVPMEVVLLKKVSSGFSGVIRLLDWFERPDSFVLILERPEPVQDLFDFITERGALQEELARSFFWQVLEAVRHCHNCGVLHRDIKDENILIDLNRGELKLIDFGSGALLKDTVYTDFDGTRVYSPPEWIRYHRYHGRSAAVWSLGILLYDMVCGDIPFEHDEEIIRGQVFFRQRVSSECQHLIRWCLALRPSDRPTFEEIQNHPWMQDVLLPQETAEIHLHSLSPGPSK
Sequence of Melanocortin receptor 4 (P32245 whole entry): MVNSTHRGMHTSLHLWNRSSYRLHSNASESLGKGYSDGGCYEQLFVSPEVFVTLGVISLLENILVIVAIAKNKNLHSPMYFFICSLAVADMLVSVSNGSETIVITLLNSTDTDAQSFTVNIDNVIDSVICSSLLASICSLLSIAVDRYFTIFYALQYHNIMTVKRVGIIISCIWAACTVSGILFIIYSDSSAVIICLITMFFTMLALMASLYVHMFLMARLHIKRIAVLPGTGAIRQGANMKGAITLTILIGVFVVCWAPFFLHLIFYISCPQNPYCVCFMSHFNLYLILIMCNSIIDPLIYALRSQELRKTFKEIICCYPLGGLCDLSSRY
Sequence of Dual specificity protein kinase CLK4 (Q9HAZ1 whole entry): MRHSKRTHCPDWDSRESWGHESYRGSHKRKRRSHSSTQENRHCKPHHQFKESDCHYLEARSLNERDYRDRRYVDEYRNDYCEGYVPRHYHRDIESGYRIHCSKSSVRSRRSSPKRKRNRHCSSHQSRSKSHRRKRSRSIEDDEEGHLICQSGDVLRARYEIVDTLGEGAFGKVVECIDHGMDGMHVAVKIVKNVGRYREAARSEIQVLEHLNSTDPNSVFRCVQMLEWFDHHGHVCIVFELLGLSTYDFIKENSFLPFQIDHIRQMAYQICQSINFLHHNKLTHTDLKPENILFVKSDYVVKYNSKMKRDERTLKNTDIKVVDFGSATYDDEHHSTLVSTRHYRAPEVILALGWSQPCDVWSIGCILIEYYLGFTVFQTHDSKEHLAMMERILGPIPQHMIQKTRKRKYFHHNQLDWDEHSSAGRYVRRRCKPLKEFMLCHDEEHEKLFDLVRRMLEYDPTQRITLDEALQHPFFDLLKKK

In the case of `N#C/C(=C\c1cn(CCOc2ccccc2F)c2ccccc12)C(=O)NCc1cccs1`, the EC50 (Melanocortin receptor 4) is reported as > 89.2 µM (inactive).
With `Cc1ccc(Nc2nc(N)nc(CN3CCCCCC3)n2)cc1` the IC50 [1] was > 20 µM (inactive) and the AC50 [2] was 117 µM (active).
In the case of `O=C(Oc1c(Cl)cc(Cl)c2cccnc12)c1ccco1`, the IC50 (Beta-galactosidase) is reported as > 66.6 µM (inactive), the EC50 [3] is reported as 15.3 µM (active) and the EC50 [4] is reported as 0.098 µM (active). The EC50 [5] was 56.7 µM (inconclusive), the AC50 [6] was < 0.195 µM (active) and the EC50 [7] was 2.12 µM (active). The EC50 [8] was 10.1 µM (active), the EC50 [9] was > 180 µM (inactive) and the AC50 [10] was 2.63 µM (active).
For `COC(=O)Nc1csc2c1NC(=O)CCCC2`, the IC50 [11] was 5.54 µM (active).
For `COc1ccc(Cc2c(C(C)(C)C)nc3ccc(Cl)cn23)c(C)c1`, the IC50 (Prothrombin) was 17.7 µM (active), the IC50 [12] was 22.5 µM (active) and the IC50 [13] was > 100 µM (inactive).
With `O=C(Oc1ccccc1)c1cccc(C(=O)Oc2ccccc2)c1` the AC50 [14] was 7.94 µM (inconclusive).
For `CC(C)C(=O)Nc1ccc(N)cc1`, the EC50 [15] was > 100 µM (inactive).
In the case of `COCC(C)Nc1cc(-c2c[nH]c3ncccc23)cc(Cl)n1` (stereo not given), the Ki [16] is reported as 0.00631 µM (active), the Ki [17] is reported as 0.794 µM (active) and the Ki [18] is reported as 0.794 µM (active). The Ki [19] was 0.251 µM (active), the Ki [20] was 0.002 µM (active) and the Ki [21] was 0.251 µM (active). The Ki [22] was 0.0631 µM (active) and the Ki [23] was 0.01 µM (active).
For `COc1ccc2c(c1)[nH]c1c(C)nccc12` [HARMINE HYDROCHLORIDE], the AC50 [24] was 14.4 µM (active), the IC50 (Interleukin-8 [25]) was > 79 µM (inactive) and the EC50 (Kallikrein-7) was 24.8 µM (inactive). The IC50 (Interleukin-8 [26]) was 6.96 µM (active).
